Structures can show the parent of a compound that is named as a salt. Where two headings read alike, the source gives them in different places.
Tests used:
[1] = target: topoisomerase II (Cricetulus griseus, UniProt P41515); experiment: Test of inhibition of the activity of topoisomerase II; assay type: biochemical; conditions: for IC50: in vitro, read-out: Test of inhibition of the activity of topoisomerase II (ED50 M)
Source text: Measurement of the inhibition of the activity of topoisomerase II is made according to the procedure described in the literature: "Nuclear topoisomerase II levels correlate with the sensitivity of mammalian cells to intercalating Agents and Epipodophyllotoxins", I. D. Hickson et al., J. Biol. Chem. (1988), 263, 17724.

[2] = background, known drugs; cited from earlier work
[3] = Measurement of the water-solubility of the salts; assay type: physicochemical; conditions: read-out: % solubility (weight/volume) expressed in g per 100 ml of water
Source text: The amorphous or crystalline salts are obtained by simple freeze-drying. [drawing 4] Measurement of the Water-Solubility
The solubility in water of the salts of the phosphate or carboxylate derivatives by addition of physiologically acceptable organic amines such as, for example, N-methylglucamine, triethanolamine or lysine, or the salts with inorganic cations such as sodium, obtained in lyophilized form or by extemporaneous addition of a base to the free acid compound, gave the following results by way of example.

topoisomerase II, sequence (P41515 whole entry): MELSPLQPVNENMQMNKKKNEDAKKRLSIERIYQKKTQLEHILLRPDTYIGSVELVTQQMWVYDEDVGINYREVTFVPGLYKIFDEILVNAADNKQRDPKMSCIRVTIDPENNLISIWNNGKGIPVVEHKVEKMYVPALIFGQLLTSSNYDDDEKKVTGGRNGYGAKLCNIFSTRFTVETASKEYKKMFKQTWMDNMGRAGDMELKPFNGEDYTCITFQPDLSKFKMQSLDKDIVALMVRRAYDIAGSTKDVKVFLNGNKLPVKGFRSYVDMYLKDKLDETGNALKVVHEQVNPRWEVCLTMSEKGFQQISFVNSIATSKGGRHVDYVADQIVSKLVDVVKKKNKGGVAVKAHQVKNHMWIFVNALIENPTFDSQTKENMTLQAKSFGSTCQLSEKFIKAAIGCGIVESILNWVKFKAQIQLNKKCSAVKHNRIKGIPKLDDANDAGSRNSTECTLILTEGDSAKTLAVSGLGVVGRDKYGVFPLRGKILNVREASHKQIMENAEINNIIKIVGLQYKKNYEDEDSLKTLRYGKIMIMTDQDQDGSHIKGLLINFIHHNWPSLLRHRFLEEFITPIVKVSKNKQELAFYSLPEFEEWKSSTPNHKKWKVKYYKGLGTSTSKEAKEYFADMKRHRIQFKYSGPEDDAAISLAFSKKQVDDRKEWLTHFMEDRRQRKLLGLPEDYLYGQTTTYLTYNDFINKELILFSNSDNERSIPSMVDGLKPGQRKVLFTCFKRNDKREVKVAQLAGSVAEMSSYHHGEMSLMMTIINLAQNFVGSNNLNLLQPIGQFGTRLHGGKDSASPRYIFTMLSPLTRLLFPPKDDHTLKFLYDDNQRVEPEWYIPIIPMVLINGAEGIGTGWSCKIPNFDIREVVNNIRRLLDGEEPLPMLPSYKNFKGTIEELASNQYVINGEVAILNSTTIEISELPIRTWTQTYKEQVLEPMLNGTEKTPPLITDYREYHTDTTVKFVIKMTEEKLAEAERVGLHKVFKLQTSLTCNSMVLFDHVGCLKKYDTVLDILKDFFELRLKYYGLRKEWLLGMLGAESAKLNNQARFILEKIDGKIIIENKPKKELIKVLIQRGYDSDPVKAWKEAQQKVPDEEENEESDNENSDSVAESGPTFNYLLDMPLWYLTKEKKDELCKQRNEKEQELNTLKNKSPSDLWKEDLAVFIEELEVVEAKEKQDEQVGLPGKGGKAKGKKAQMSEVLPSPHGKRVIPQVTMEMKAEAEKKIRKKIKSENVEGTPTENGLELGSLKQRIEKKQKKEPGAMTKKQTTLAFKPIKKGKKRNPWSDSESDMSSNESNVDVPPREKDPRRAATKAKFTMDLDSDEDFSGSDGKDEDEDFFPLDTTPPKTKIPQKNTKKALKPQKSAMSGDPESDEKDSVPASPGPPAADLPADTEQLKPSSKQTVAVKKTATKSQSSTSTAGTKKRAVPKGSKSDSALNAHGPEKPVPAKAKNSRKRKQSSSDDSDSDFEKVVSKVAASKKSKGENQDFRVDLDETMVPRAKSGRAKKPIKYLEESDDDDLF

Row | SMILES | IC50 [1] | solubility ([3]; N-methylglucamine salt) | other results
1 | COc1cc([C@@H]2c3cc4c(cc3[C@@H](O[C@@H]3O[C@@H]5CO[C@@H](C)O[C@H]5[C@H](O)[C@H]3O)[C@H]3COC(=O)[C@H]23)OCO4)cc(OC)c1OP(=O)(O)O [Etopofos, reference compound] | > 100 µM |  | in vitro activity compared with etoposide (in words) ([1]; relative to etoposide): loss of in vitro activity
2 | COc1cc([C@@H]2c3cc4c(cc3[C@@H](O[C@@H]3O[C@@H]5CO[C@@H](C)O[C@H]5[C@H](O)[C@H]3O)[C@H]3COC(=O)[C@H]23)OCO4)cc(OC)c1O [Etoposide, reference compound] | 56 µM |  | water-solubility (in words) [2]: lack of water-solubility
3 | COc1cc([C@@H]2c3cc4c(cc3[C@@H](O[C@@H]3O[C@@H]5CO[C@@H](C)O[C@H]5[C@H](OC(=O)COc5ccccc5)[C@H]3OC(=O)COc3ccccc3)[C@H]3COC(=O)[C@H]23)OCO4)cc(OC)c1OP(=O)(O)O [Example 1, 4'-demethyl-4-O-(2,3-bisphenoxyacetyl-4,6-ethylidene-β-D-glucosyl)epipodophyllotoxin-4'-deoxy-4'-phosphate] | 5.6 µM | 5 mg/mL | 
4 | COc1cc([C@@H]2c3cc4c(cc3[C@@H](O[C@@H]3O[C@@H]5CO[C@@H](C)O[C@H]5[C@H](OC(=O)COc5ccc(OC(F)(F)F)cc5)[C@H]3OC(=O)COc3ccc(OC(F)(F)F)cc3)[C@H]3COC(=O)[C@H]23)OCO4)cc(OC)c1OP(=O)(O)O [Example 3, 4'-demethyl-4-O-(2,3-bis-(4-trifluoromethoxyphenoxyacetyl)-4,6-ethylidene-β-D-gluocosyl)epipodophyllotoxin-4'-deoxy-4'-phosphate, bis(N-methylglucamine) Salt] | 0.32 µM | 50 mg/mL | 
5 | COc1cc([C@@H]2c3cc4c(cc3[C@@H](O[C@@H]3O[C@@H]5CO[C@@H](C)O[C@H]5[C@H](OC(=O)COc5ccc(F)cc5)[C@H]3OC(=O)COc3ccc(F)cc3)[C@H]3COC(=O)[C@H]23)OCO4)cc(OC)c1OP(=O)(O)O [Example 4, 4'-demethyl-4-O-(2,3-bis(4-fluorophenoxyacetyl)-4,6-ethylidene-β-D-glucosyl)epipodophyllotoxin-4'-deoxy-4'-phosphate bis(N-methylglucamine) Salt] | 1.8 µM | 100 mg/mL | 
6 | COc1cc([C@@H]2c3cc4c(cc3[C@@H](O[C@@H]3O[C@@H]5CO[C@@H](C)O[C@H]5[C@H](OC(=O)COc5ccc(OP(=O)(O)O)cc5)[C@H]3OC(=O)COc3ccc(OP(=O)(O)O)cc3)[C@H]3COC(=O)[C@H]23)OCO4)cc(OC)c1OC(=O)COc1ccc(OP(=O)(O)O)cc1 [Example 6, 4'-(4-phosphonooxyphenoxyacetyl)-4'-demethyl-4-O-(2,3-bis(4-phosphonooxyphenoxyacetyl)-4,6-ethylidene-β-D-glucosyl)epipodophyllotoxin] | 0.32 µM | 100 mg/mL | solubility ([3]; Sodium salt): 10 mg/mL; solubility ([3]; lysine salt): 200 mg/mL; solubility ([3]; triethanolamine salt): 200 mg/mL
7 | COc1cc([C@@H]2c3cc4c(cc3[C@@H](O[C@@H]3O[C@@H]5CO[C@@H](C)O[C@H]5[C@H](OC(=O)COc5ccc(OP(=O)(O)O)cc5)[C@H]3OC(=O)COc3ccc(OP(=O)(O)O)cc3)[C@H]3COC(=O)[C@H]23)OCO4)cc(OC)c1OP(=O)(O)O [Example 7, 4'-demethyl-4-O-(2,3-bis(4-phosphonooxyphenoxyacetyl)-4,6-ethylidene-β-D-glucosyl)epipodophyllotoxin-4'-deoxy-4'-phosphate] | 56 µM | 100 mg/mL | 
8 | COc1cc([C@@H]2c3cc4c(cc3[C@@H](O[C@@H]3O[C@@H]5CO[C@@H](C)O[C@H]5[C@H](OC(=O)COc5ccc(O)cc5)[C@H]3OC(=O)COc3ccc(O)cc3)[C@H]3COC(=O)[C@H]23)OCO4)cc(OC)c1OC(=O)N(CC(=O)O)CC(=O)O [Example 11, 4'-(dicarboxymethylaminocarbonyl)-4'-demethyl-4-O-(2,3-bis(p-hydroxyphenoxyacetyl)-4,6-ethylidene-β-D-glucosyl)epipodophyllotoxin] | 5.6 µM | 100 mg/mL | 
9 | COc1cc([C@@H]2c3cc4c(cc3[C@@H](O[C@@H]3O[C@@H]5CO[C@@H](C)O[C@H]5[C@H](OC(=O)CS(=O)(=O)c5ccccc5)[C@H]3OC(=O)CS(=O)(=O)c3ccccc3)[C@H]3COC(=O)[C@H]23)OCO4)cc(OC)c1OP(=O)(O)O [Example 21, 4'-demethyl-4'-deoxy-4'-phosphate-4-O-(2,3-bis(phenylsulfonylacetyl)-4,6-ethylidene-β-D-glucosyl)epipodophyllotoxin] | 5.6 µM | 100 mg/mL | 
10 | COc1cc([C@@H]2c3cc4c(cc3[C@@H](O[C@@H]3O[C@@H]5CO[C@@H](C)O[C@H]5[C@H](OC(=O)COc5ccc(OCC(=O)O)cc5)[C@H]3OC(=O)COc3ccc(OCC(=O)O)cc3)[C@H]3COC(=O)[C@H]23)OCO4)cc(OC)c1OC(=O)COc1ccc(OCC(=O)O)cc1 [Example 26, 4'-demethyl-4'-carboxymethoxyphenoxyacetyl-4-O-(2,3-bis(4-carboxymethoxyphenoxyacetyl)-4,6-ethylidene-β-D-glucosyl)epipodophyllotoxin] | 5.6 µM | 100 mg/mL | 
11 | COc1cc([C@@H]2c3cc4c(cc3[C@@H](O[C@@H]3O[C@@H]5CO[C@@H](C)O[C@H]5[C@H](OC(=O)COc5ccc(Cl)cc5)[C@H]3OC(=O)COc3ccc(Cl)cc3)[C@H]3COC(=O)[C@H]23)OCO4)cc(OC)c1OP(=O)(O)O [Example 27, 4'-demethyl-4'-deoxy-4'-phosphate-4-O-(2,3-bis(4-chlorophenoxyacetyl)-4,6-ethylidene-β-D-glucosyl)epipodophyllotoxin] | 0.76 µM | 5 mg/mL | 
12 | COc1cc([C@@H]2c3cc4c(cc3[C@@H](O[C@@H]3O[C@@H]5CO[C@@H](c6cccs6)O[C@H]5[C@H](O)[C@H]3O)[C@H]3COC(=O)[C@H]23)OCO4)cc(OC)c1O [teniposide] |  |  | water-solubility (in words) [2]: lack of water-solubility

Source: patent publication US6107284A, “Water-soluble derivatives of epipodophyllotoxin, process for their preparation, their use as medicinal products and their intended use in anti-cancer treatments” (Pierre Fabre Medicament, priority 1994, dated 2000)
